These are literature values, as cited in patent US20220323393A1, “COMPOSITIONS AND METHODS FOR TREATING AND/OR PREVENTING CARDIOVASCULAR DISEASE” (AMARIN PHARMACEUTICALS IRELAND LIMITED, priority 2010, published 2022).

Each structure is given as a SMILES string.

The test system of the series is subjects with AAMI. To be noted: 50 mg, Day 21 of repeated dosing.

As to `CN[C@@H](C)C/C=C/c1cncc(OC(C)C)c1` [Ispronicline], the “Benefit to Power of Attention versus placebo” value was 61 ms. Further, the “Power of Attention, mean” value (SD=61.22) is -32.54 ms.
